Biological target: T1, GlyT1 (Homo sapiens, UniProt P48067)
T1 construct: expressed in transfected cells
T1 sequence (P48067 1-706): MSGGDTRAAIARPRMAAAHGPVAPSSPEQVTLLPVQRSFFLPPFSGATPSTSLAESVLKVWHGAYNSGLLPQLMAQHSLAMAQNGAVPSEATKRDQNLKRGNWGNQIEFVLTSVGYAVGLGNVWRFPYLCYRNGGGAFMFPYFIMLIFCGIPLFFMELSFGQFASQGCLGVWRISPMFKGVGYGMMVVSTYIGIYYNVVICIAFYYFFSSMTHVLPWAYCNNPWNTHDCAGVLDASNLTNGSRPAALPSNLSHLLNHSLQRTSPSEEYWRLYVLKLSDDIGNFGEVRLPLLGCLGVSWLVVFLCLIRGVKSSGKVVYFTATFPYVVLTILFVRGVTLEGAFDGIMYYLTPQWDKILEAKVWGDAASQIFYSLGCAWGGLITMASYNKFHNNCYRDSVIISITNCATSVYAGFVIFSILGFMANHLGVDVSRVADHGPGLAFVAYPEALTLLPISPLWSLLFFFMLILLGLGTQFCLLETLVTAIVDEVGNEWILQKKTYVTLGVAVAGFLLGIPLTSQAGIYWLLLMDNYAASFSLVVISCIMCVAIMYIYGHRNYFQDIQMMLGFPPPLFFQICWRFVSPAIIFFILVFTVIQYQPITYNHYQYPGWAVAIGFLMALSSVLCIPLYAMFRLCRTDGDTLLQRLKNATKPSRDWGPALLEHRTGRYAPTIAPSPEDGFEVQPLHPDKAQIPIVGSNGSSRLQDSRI
Experiment: Glycine Transporter 1 (GlyT1) uptake assay, scintillation proximity assay of [14C]-glycine uptake
Assay type: cell-based
Conditions: SPA, four parameter logistic fit, read-out: GlyT1 (pIC50) (converted)
In short: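 IC50 values derive from four-parameter logistic curves fitted to dose-response data. Uptake of [14C]-glycine measured in scintillation proximity format.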

SMILES | IC50
COc1c(C#N)ccc(OC2COC2)c1C(=O)N1Cc2cn(-c3ccc(F)c(C)n3)nc2C1 [Example 537, 3-[2-(5-Fluoro-6-methylpyridin-2-yl)-2H 4H 5H 6H-pyrrolo[3,4-c]pyrazole-5-carbonyl]-2-methoxy-4-(oxetan-3-yloxy)benzonitrile] | 0.1 to 1 µM
Cc1cc(-n2cc3c(n2)CN(C(=O)c2cc(C#N)ccc2OCC2(C)COC2)C3)ccn1 [Example 538, 4-[(3-Methyloxetan-3-yl)methoxy]-3-[2-(2-methylpyridin-4-yl)-2H 4H 5H 6H-pyrrolo[3,4-c]pyrazole-5-carbonyl]benzonitrile] | 1 to 10 µM
Cc1cc(-n2cc3c(n2)CN(C(=O)c2cc(C#N)ccc2OCC(F)(F)F)C3)ccn1 [Example 539, 3-[2-(2-Methylpyridin-4-yl)-2H 4H 5H 6H-pyrrolo[3,4-c]pyrazole-5-carbonyl]-4-(2 2 2-trifluoroethoxy)benzonitrile] | 0.1 to 1 µM
Cc1cc(-n2cc3c(n2)CN(C(=O)c2cc(C#N)ccc2OCC2CC2)C3)ccn1 [Example 540, 4-(Cyclopropylmethoxy)-3-[2-(2-methylpyridin-4-yl)-2H 4H 5H 6H-pyrrolo[3,4-c]pyrazole-5-carbonyl]benzonitrile] | < 0.1 µM
Cc1cc(-n2cc3c(n2)CN(C(=O)c2cc(C#N)ccc2OC(C)(C)C(F)(F)F)C3)ccn1 [Example 542, 3-[2-(2-Methylpyridin-4-yl)-2H 4H 5H 6H-pyrrolo[3,4-c]pyrazole-5-carbonyl]-4-[(1 1 1-trifluoro-2-methylpropan-2-yl)oxy]benzonitrile] | < 0.1 µM
CCc1cc(-n2cc3c(n2)CN(C(=O)c2cc(C#N)ccc2OCC(F)(F)F)C3)ccn1 [Example 543, 3-[2-(2-Ethylpyridin-4-yl)-2H 4H 5H 6H-pyrrolo[3,4-c]pyrazole-5-carbonyl]-4-(2 2 2-trifluoroethoxy)benzonitrile] | 0.1 to 1 µM
CCc1cc(-n2cc3c(n2)CN(C(=O)c2cc(C#N)ccc2OCC2CC2)C3)ccn1 [Example 544, 4-(Cyclopropylmethoxy)-3-[2-(2-ethylpyridin-4-yl)-2H 4H 5H 6H-pyrrolo[3,4-c]pyrazole-5-carbonyl]benzonitrile] | 0.1 to 1 µM
CCc1cc(-n2cc3c(n2)CN(C(=O)c2cc(C#N)ccc2OCC(F)F)C3)ccn1 [Example 545, 4-(2 2-Difluoroethoxy)-3-[2-(2-ethylpyridin-4-yl)-2H 4H 5H 6H-pyrrolo[3,4-c]pyrazole-5-carbonyl]benzonitrile] | 0.1 to 1 µM
CCc1cc(-n2cc3c(n2)CN(C(=O)c2cc(C#N)ccc2N2CCC(F)(F)CC2)C3)ccn1 [Example 546, 4-(4 4-Difluoropiperidin-1-yl)-3-[2-(2-ethylpyridin-4-yl)-2H 4H 5H 6H-pyrrolo[3,4-c]pyrazole-5-carbonyl]benzonitrile] | < 0.1 µM
CS(=O)(=O)c1ccc(-c2ccc(C(F)(F)F)nc2)c(C(=O)N2Cc3cn(-c4ccccc4F)nc3C2)c1 [Example 547, 5-{2-[2-(2-Fluorophenyl)-2H 4H 5H 6H-pyrrolo[3,4-c]pyrazole-5-carbonyl]-4-methanesulfonylphenyl}-2-(trifluoromethyl)pyridine] | 0.1 to 1 µM
CS(=O)(=O)c1ccc(-c2cncc(F)c2)c(C(=O)N2Cc3cn(-c4ccc(F)cn4)nc3C2)c1 [Example 548, 5-Fluoro-2-{5-[2-(5-fluoropyridin-3-yl)-5-methanesulfonylbenzoyl]-2H 4H 5H 6H-pyrrolo[3,4-c]pyrazol-2-yl}pyridine] | 1 to 10 µM
Cc1cncc(-c2ccc(S(C)(=O)=O)cc2C(=O)N2Cc3cn(-c4ccc(F)cn4)nc3C2)c1 [Example 549, 5-Fluoro-2-{5-[5-methanesulfonyl-2-(5-methylpyridin-3-yl)benzoyl]-2H 4H 5H 6H-pyrrolo[3,4-c]pyrazol-2-yl}pyridine] | < 0.1 µM
N#Cc1ccc(-c2ccccc2F)c(C(=O)N2Cc3cn(-c4cncc(F)c4)nc3C2)c1 [Example 550, 4-(2-Fluorophenyl)-3-[2-(5-fluoropyridin-3-yl)-2H 4H 5H 6H-pyrrolo[3,4-c]pyrazole-5-carbonyl]benzonitrile] | 1 to 10 µM
N#Cc1ccc(-c2cncc(F)c2)c(C(=O)N2Cc3cn(-c4cncc(F)c4)nc3C2)c1 [Example 552, 4-(5-Fluoropyridin-3-yl)-3-[2-(5-fluoropyridin-3-yl)-2H 4H 5H 6H-pyrrolo[3,4-c]pyrazole-5-carbonyl]benzonitrile] | 0.1 to 1 µM
N#Cc1ccc(-c2cccnc2)c(C(=O)N2Cc3cn(-c4cncc(F)c4)nc3C2)c1 [Example 553] | 0.1 to 1 µM
Cc1cc(-n2cc3c(n2)CN(C(=O)c2cc(C#N)ccc2-c2ccccc2F)C3)ccn1 [Example 554, 4-(2-Fluorophenyl)-3-[2-(2-methylpyridin-4-yl)-2H 4H 5H 6H-pyrrolo[3,4-c]pyrazole-5-carbonyl]benzonitrile] | 1 to 10 µM

SMILES | IC50
CS(=O)(=O)c1ccc(-c2cccnc2)c(C(=O)N2Cc3cn(-c4ccccc4F)nc3C2)c1 [Example 555, (2-(2-Fluorophenyl)pyrrolo[3,4-c]pyrazol-5(2H,4H,6H)-yl)(5-(methylsulfonyl)-2-(pyridin-3-yl)phenyl)methanone] | 0.1 to 1 µM
Cc1cc(-n2cc3c(n2)CN(C(=O)c2cc(C#N)ccc2-c2cncc(F)c2)C3)ccn1 [Example 556, 4-(5-Fluoropyridin-3-yl)-3-[2-(2-methylpyridin-4-yl)-2H 4H 5H 6H-pyrrolo[3,4-c]pyrazole-5-carbonyl]benzonitrile] | < 0.1 µM
N#Cc1ccc(-c2cccc(F)c2)c(C(=O)N2Cc3cn(C4CCOCC4)nc3C2)c1 [Example 557, 4-(3-Fluorophenyl)-3-[2-(oxan-4-yl)-2H 4H 5H 6H-pyrrolo[3,4-c]pyrazole-5-carbonyl]benzonitrile] | 0.1 to 1 µM
Cc1cccc(-c2ccc(C#N)cc2C(=O)N2Cc3cn(C4CCOCC4)nc3C2)c1 [Example 558, 4-(3-Methylphenyl)-3-[2-(oxan-4-yl)-2H 4H 5H 6H-pyrrolo[3,4-c]pyrazole-5-carbonyl]benzonitrile] | > 10 µM
CS(=O)(=O)c1ccc(-c2ccccc2F)c(C(=O)N2Cc3cn(-c4ccccc4F)nc3C2)c1 [Example 559, 2-(2-Fluorophenyl)-5-[2-(2-fluorophenyl)-5-methanesulfonylbenzoyl]-2H 4H 5H 6H-pyrrolo[3,4-c]pyrazole] | < 0.1 µM
CS(=O)(=O)c1ccc(-c2cccc(F)c2)c(C(=O)N2Cc3cn(-c4ccccc4F)nc3C2)c1 [Example 560, 2-(2-Fluorophenyl)-5-[2-(3-fluorophenyl)-5-methanesulfonylbenzoyl]-2H 4H 5H 6H-pyrrolo[3,4-c]pyrazole] | < 0.1 µM
CS(=O)(=O)c1ccc(-c2cncc(F)c2)c(C(=O)N2Cc3cn(-c4ccccc4F)nc3C2)c1 [Example 561, 3-Fluoro-5-{2-[2-(2-fluorophenyl)-2H 4H 5H 6H-pyrrolo[3,4-c]pyrazole-5-carbonyl]-4-methanesulfonylphenyl}pyridine] | < 0.1 µM
Cc1cc(-n2cc3c(n2)CN(C(=O)c2cc(C#N)ccc2-c2cc(F)cc(F)c2)C3)ccn1 [Example 562, 4-(3 5-Difluorophenyl)-3-[2-(2-methylpyridin-4-yl)-2H 4H 5H 6H-pyrrolo[3,4-c]pyrazole-5-carbonyl]benzonitrile] | 0.1 to 1 µM
CS(=O)(=O)c1ccc(-c2cc(F)cc(F)c2)c(C(=O)N2Cc3cn(-c4cncc(F)c4)nc3C2)c1 [Example 563, 3-{5-[2-(3 5-Difluorophenyl)-5-methanesulfonylbenzoyl]-2H 4H 5H 6H-pyrrolo[3,4-c]pyrazol-2-yl}-5-fluoropyridine] | < 0.1 µM
Cc1cccc(-c2ccc(C#N)cc2C(=O)N2Cc3cn(-c4ccnc(C)c4)nc3C2)c1 [Example 564, 4-(3-Methylphenyl)-3-[2-(2-methylpyridin-4-yl)-2H 4H 5H 6H-pyrrolo[3,4-c]pyrazole-5-carbonyl]benzonitrile] | 1 to 10 µM
Cc1cc(-n2cc3c(n2)CN(C(=O)c2cc(C#N)ccc2-c2cccc(C(F)(F)F)c2)C3)ccn1 [Example 565, 3-[2-(2-Methylpyridin-4-yl)-2H 4H 5H 6H-pyrrolo[3,4-c]pyrazole-5-carbonyl]-4-[3-(trifluoromethyl)phenyl]benzonitrile] | 1 to 10 µM
CS(=O)(=O)c1ccc(-c2ccccc2)c(C(=O)N2Cc3cn(-c4ccc(F)cn4)nc3C2)c1 [Example 566, 5-Fluoro-2-[5-(5-methanesulfonyl-2-phenylbenzoyl)-2H 4H 5H 6H-pyrrolo[3,4-c]pyrazol-2-yl]pyridine] | < 0.1 µM
CCS(=O)(=O)c1ccc(-c2ccccc2)c(C(=O)N2Cc3cn(-c4ccnc(C)c4)nc3C2)c1 [Example 567, 4-{5-[5-(Ethanesulfonyl)-2-phenylbenzoyl]-2H 4H 5H 6H-pyrrolo[3,4-c]pyrazol-2-yl}-2-methylpyridine] | < 0.1 µM
CCS(=O)(=O)c1ccc(-c2cccc(F)c2)c(C(=O)N2Cc3cn(-c4ccnc(C)c4)nc3C2)c1 [Example 568] | < 0.1 µM
CCS(=O)(=O)c1ccc(-c2cc(F)cc(F)c2)c(C(=O)N2Cc3cn(-c4ccnc(C)c4)nc3C2)c1 [Example 569, 4-{5-[2-(3 5-Difluorophenyl)-5-(ethanesulfonyl)benzoyl]-2H 4H 5H 6H-pyrrolo[3,4-c]pyrazol-2-yl}-2-methylpyridine] | < 0.1 µM
